Measurements published in ChEMBL document CHEMBL1201862, “PubChem BioAssay data set” (2004).
Several values for one entry are separate records, joined by “and”; a condition that tells them apart may be missing. Identical values can stand only once.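 Grown in 96-well plates, cells were treated for 48 hours with each compound at five concentrations. Insufficient inhibition: endpoint recorded as highest concentration tested. Here, GI50 denotes the concentration required for 50% inhibition of growth.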 Activity calls are given as the source filed them. No stated cut-off is given here; in the data, active = GI50 up to about 1.1 µM and inactive = higher.

What was measured:
Assay in all cases: growth of human tumour cells (NCI), 48 h
[1] = system: MOLT-4
[2] = system: UO-31
[3] = system: SK-MEL-28
[4] = system: M14
[5] = system: K562
[6] = system: PC-3
[7] = system: A498
[8] = system: SNB-19
[9] = system: MDA-MB-231
[10] = system: HOP-62
[11] = system: SK-OV-3
[12] = system: HCT-15
[13] = system: SR
[14] = system: SNB-75
[15] = system: 786-0
[16] = system: Malme-3M
[17] = system: TK-10
[18] = system: NCI/ADR-RES
[19] = system: SF-295
[20] = system: NCI-H226
[21] = system: NCI-H23
[22] = system: EKVX
[23] = system: OVCAR-3
[24] = system: SW-620
[25] = system: UACC-62
[26] = system: SN12C
[27] = system: OVCAR-5
[28] = system: NCI-H522
[29] = system: COLO 205
[30] = system: HT-29
[31] = system: HCT-116
[32] = system: U-251
[33] = system: Hs-578T
[34] = system: ACHN
[35] = system: CCRF-CEM
[36] = system: SK-MEL-5
[37] = system: KM12
[38] = system: SK-MEL-2
[39] = system: A549
[40] = system: MDA-N
[41] = system: OVCAR-4
[42] = system: IGROV-1
[43] = system: OVCAR-8
[44] = system: MDA-MB-435
[45] = system: HOP-92
[46] = system: SF-268
[47] = system: DU-145
[48] = system: MCF7
[49] = system: RPMI-8226
[50] = system: LOX IMVI
[51] = system: T47D
[52] = system: SF-539
[53] = system: HL-60
[54] = system: RXF 393
[55] = system: CAKI-1
[56] = system: HCC 2998
[57] = system: NCI-H460
[58] = system: UACC-257

Structure (SMILES): CSC1=N/C(=C\c2ccc(Cl)cc2)C(=O)N1CN1CCOCC1
- GI50 [1]: 40 µM (inactive)
- GI50 [2]: 23 µM (inactive)
- GI50 [3]: > 100 µM (inactive)
- GI50 [4]: 39 µM (inactive)
- GI50 [5]: 33 µM (inactive)
- GI50 [6]: 38.9 µM (inactive)
- GI50 [7]: 17.6 µM (inactive)
- GI50 [8]: 31.8 µM (inactive)
- GI50 [9]: 43 µM (inactive)
- GI50 [10]: 23.4 µM (inactive)
- GI50 [11]: 30.6 µM (inactive)
- GI50 [12]: 21.6 µM
- GI50 [13]: 0.0791 µM (active)
- GI50 [14]: 55.2 µM (inactive)
- GI50 [15]: 33.4 µM (inactive)
- GI50 [16]: 52.2 µM (inactive)
- GI50 [17]: 27.5 µM (inactive)
- GI50 [18]: 40.6 µM (inactive)
- GI50 [19]: > 100 µM (inactive)
- GI50 [20]: 46.8 µM (inactive)
- GI50 [21]: 66.8 µM (inactive)
- GI50 [22]: 53.5 µM (inactive)
- GI50 [23]: 41.7 µM (inactive)
- GI50 [24]: 36.7 µM (inactive)
- GI50 [25]: 28.9 µM (inactive)
- GI50 [26]: 47.5 µM (inactive)
- GI50 [27]: 87.9 µM (inactive)
- GI50 [28]: 30.7 µM (inactive)
- GI50 [29]: 28.9 µM (inactive)
- GI50 [30]: 27.5 µM (inactive)
- GI50 [31]: 27.5 µM (inactive)
- GI50 [32]: 27 µM (inactive)
- GI50 [33]: 33 µM (inactive)
- GI50 [34]: 31.3 µM (inactive)
- GI50 [35]: 30.8 µM (inactive)
- GI50 [36]: 32.6 µM (inactive)
- GI50 [37]: 85.7 µM (inactive)
- GI50 [38]: 52.8 µM (inactive)
- GI50 [39]: > 100 µM (inactive)
- GI50 [40]: 47.8 µM (inactive)
- GI50 [41]: 21 µM (inactive)
- GI50 [42]: 27.4 µM (inactive)
- GI50 [43]: 21.7 µM (inactive)
- GI50 [44]: 58.3 µM (inactive)
- GI50 [45]: 0.308 µM (active)
- GI50 [46]: 18.2 µM (inactive)
- GI50 [47]: 63.8 µM (inactive)
- GI50 [48]: 5.75 µM (inactive)
- GI50 [49]: 19.3 µM (inactive)
- GI50 [50]: 26.4 µM (inactive)

Structure (SMILES): COc1ccc(C2c3c(-c4ccccc4)nn(-c4ccccc4)c3Oc3ncn4nc(CC#N)nc4c32)cc1OC (configuration not stated)
- GI50 [1]: > 100 µM (inactive)
- GI50 [5]: 22.6 µM (inactive) and > 23.7 µM (inactive)
- GI50 [12]: 14 µM and 20.3 µM
- GI50 [13]: 5.57 µM (inactive)
- GI50 [22]: 7.89 µM (inactive)
- GI50 [26]: 15 µM (inactive) and > 20.1 µM (inactive)
- GI50 [51]: 10.1 µM (inactive)

Structure (SMILES): O=C1/C(=C/C=C/c2ccccc2)N=C(c2ccccc2)N1C1Nc2cc3c(cc2S1)NC(N1C(=O)/C(=C/C=C/c2ccccc2)N=C1c1ccccc1)S3 (configuration not stated)
- GI50 [1]: 0.0117 µM (active)
- GI50 [2]: 28.1 µM (inactive)
- GI50 [3]: 38.2 µM (inactive)
- GI50 [4]: 26.4 µM (inactive)
- GI50 [5]: 0.311 µM (active)
- GI50 [6]: 65.2 µM (inactive)
- GI50 [7]: 15.5 µM (inactive)
- GI50 [9]: 31.6 µM (inactive)
- GI50 [10]: > 100 µM (inactive)
- GI50 [11]: > 100 µM (inactive)
- GI50 [12]: 40.9 µM
- GI50 [13]: < 0.01 µM (active)
- GI50 [15]: 45.9 µM (inactive)
- GI50 [17]: 86.7 µM (inactive)
- GI50 [52]: > 100 µM (inactive)
- GI50 [18]: 67.9 µM (inactive)
- GI50 [19]: 67.6 µM (inactive)
- GI50 [20]: > 100 µM (inactive)
- GI50 [21]: 66.5 µM (inactive)
- GI50 [22]: > 100 µM (inactive)
- GI50 [23]: 46.9 µM (inactive)
- GI50 [24]: 22.4 µM (inactive)
- GI50 [53]: 29.1 µM (inactive)
- GI50 [27]: > 100 µM (inactive)
- GI50 [28]: 10.3 µM (inactive)
- GI50 [30]: 23.3 µM (inactive)
- GI50 [31]: 28.1 µM (inactive)
- GI50 [32]: 42.4 µM (inactive)
- GI50 [33]: 10.5 µM (inactive)
- GI50 [54]: 33.8 µM (inactive)
- GI50 [34]: 41.8 µM (inactive)
- GI50 [55]: 73.6 µM (inactive)
- GI50 [35]: 43.9 µM (inactive)
- GI50 [36]: 55 µM (inactive)
- GI50 [56]: 11.4 µM (inactive)
- GI50 [57]: 15.8 µM (inactive)
- GI50 [37]: 21.7 µM (inactive)
- GI50 [38]: > 100 µM (inactive)
- GI50 [41]: 73.8 µM (inactive)
- GI50 [42]: 48 µM (inactive)
- GI50 [43]: 44.4 µM (inactive)
- GI50 [44]: 31.9 µM (inactive)
- GI50 [58]: > 100 µM (inactive)
- GI50 [51]: 30.3 µM (inactive)
- GI50 [45]: 22.2 µM (inactive)
- GI50 [46]: 9.68 µM (inactive)
- GI50 [47]: 38.8 µM (inactive)
- GI50 [48]: 29.9 µM (inactive)
- GI50 [49]: 13.2 µM (inactive)
- GI50 [50]: 48.8 µM (inactive)

Structure (SMILES): Cc1ncc([N+](=O)[O-])n1CC(O)Cn1cnc([N+](=O)[O-])n1 (configuration not stated)
- GI50 [1]: > 100 µM (inactive)
- GI50 [3]: > 100 µM (inactive)
- GI50 [5]: > 100 µM (inactive)
- GI50 [6]: > 100 µM (inactive)
- GI50 [7]: 2.84 µM (inactive)
- GI50 [10]: > 100 µM (inactive)
- GI50 [12]: > 100 µM
- GI50 [13]: > 100 µM (inactive)
- GI50 [14]: > 100 µM (inactive)
- GI50 [15]: > 100 µM (inactive)
- GI50 [16]: 55.1 µM (inactive)
- GI50 [17]: > 10 µM (inactive)
- GI50 [52]: > 100 µM (inactive)
- GI50 [19]: > 100 µM (inactive)
- GI50 [20]: > 100 µM (inactive)
- GI50 [21]: > 100 µM (inactive)
- GI50 [22]: > 100 µM (inactive)
- GI50 [23]: > 100 µM (inactive)
- GI50 [24]: > 100 µM (inactive)
- GI50 [26]: > 100 µM (inactive)
- GI50 [53]: 64.1 µM (inactive)
- GI50 [27]: > 100 µM (inactive)
- GI50 [28]: > 100 µM (inactive)
- GI50 [30]: > 100 µM (inactive)
- GI50 [31]: > 100 µM (inactive)
- GI50 [32]: > 100 µM (inactive)
- GI50 [33]: > 100 µM (inactive)
- GI50 [34]: > 100 µM (inactive)
- GI50 [35]: > 100 µM (inactive)
- GI50 [36]: > 100 µM (inactive)
- GI50 [56]: > 100 µM (inactive)
- GI50 [57]: > 100 µM (inactive)
- GI50 [37]: > 100 µM (inactive)
- GI50 [38]: > 100 µM (inactive)
- GI50 [39]: > 100 µM (inactive)
- GI50 [43]: > 100 µM (inactive)
- GI50 [58]: > 100 µM (inactive)
- GI50 [46]: > 100 µM (inactive)
- GI50 [48]: > 100 µM (inactive)
- GI50 [49]: > 100 µM (inactive)

Structure (SMILES): O=C(CCCn1cnc([N+](=O)[O-])n1)NCCCn1ccnc1[N+](=O)[O-]
- GI50 [1]: > 100 µM (inactive)
- GI50 [3]: > 100 µM (inactive)
- GI50 [5]: > 100 µM (inactive)
- GI50 [6]: > 100 µM (inactive)
- GI50 [7]: 9.35 µM (inactive)
- GI50 [10]: > 100 µM (inactive)
- GI50 [12]: > 100 µM
- GI50 [13]: > 100 µM (inactive)
- GI50 [14]: > 100 µM (inactive)
- GI50 [15]: > 100 µM (inactive)
- GI50 [16]: 83.2 µM (inactive)
- GI50 [17]: 99.8 µM (inactive)
- GI50 [52]: > 100 µM (inactive)
- GI50 [19]: > 100 µM (inactive)
- GI50 [20]: > 100 µM (inactive)
- GI50 [21]: > 100 µM (inactive)
- GI50 [22]: > 100 µM (inactive)
- GI50 [23]: > 100 µM (inactive)
- GI50 [24]: 68.2 µM (inactive)
- GI50 [26]: > 100 µM (inactive)
- GI50 [53]: 78.9 µM (inactive)
- GI50 [27]: > 100 µM (inactive)
- GI50 [28]: > 100 µM (inactive)
- GI50 [30]: > 100 µM (inactive)
- GI50 [31]: > 100 µM (inactive)
- GI50 [32]: > 100 µM (inactive)
- GI50 [33]: > 100 µM (inactive)
- GI50 [34]: > 100 µM (inactive)
- GI50 [35]: > 100 µM (inactive)
- GI50 [36]: 61.8 µM (inactive)
- GI50 [56]: > 100 µM (inactive)
- GI50 [57]: > 100 µM (inactive)
- GI50 [37]: > 100 µM (inactive)
- GI50 [38]: 32.4 µM (inactive)
- GI50 [39]: > 100 µM (inactive)
- GI50 [43]: > 100 µM (inactive)
- GI50 [58]: > 100 µM (inactive)
- GI50 [46]: > 100 µM (inactive)
- GI50 [48]: > 100 µM (inactive)
- GI50 [49]: > 100 µM (inactive)
